Laboratory results reported in US20170050957A1, “4-AMINO-6-(HETEROCYCLIC)PICOLINATES AND 6-AMINO-2-(HETEROCYCLIC)PYRIMIDINE-4-CARBOXYLATES AND THEIR USE AS HERBICIDES” (Dow AgroSciences LLC, priority 2013, published 2017).

System: Wheat and Barley and test plant species
Assay: Post-emergent Test III, herbicidal activity in wheat and barley (Table 17; visual injury, GR20/GR50/GR80/GR90)
Type: in vivo
Details: 21 d; for Visual Growth Reduction (%) 21 Days After Application, CIRAR / Visual Growth Reduction (%) 21 Days After Application, GALAP / Visual Growth Reduction (%) 21 Days After Application, HORVS / Visual Growth Reduction (%) 21 Days After Application, KCHSC / Visual Growth Reduction (%) 21 Days After Application, LAMPU / Visual Growth Reduction (%) 21 Days After Application, MATCH / Visual Growth Reduction (%) 21 Days After Application, PAPRH / Visual Growth Reduction (%) 21 Days After Application, SASKR / Visual Growth Reduction (%) 21 Days After Application, SINAR / Visual Growth Reduction (%) 21 Days After Application, TRZAS / Visual Growth Reduction (%) 21 Days After Application, VERPE / Visual Growth Reduction (%) 21 Days After Application, VIOTR: post-emergent
Outline: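 Greenhouse-grown plants at second to third true leaf stage (about 18/17° C day/night, 14 h photoperiod) sprayed post-emergence with compound in acetone/DMSO/water-based mix with Agri-Dex crop oil and X-77 surfactant at 187 L/ha, at highest rate and 1/2× to 1/16× dilutions. Visual injury scored 0–100% versus untreated plants after 21 d; GR20/GR50/GR80/GR90 from probit analysis.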

## COC(=O)c1nc(-c2ccc3cc[nH]c3c2F)cc(N)c1Cl [Compound 1.23, Methyl 4-amino-3-chloro-6-(7-fluoro-1H-indol-6-yl)picolinate]
CIRAR, 17.5 g ai/ha
  Visual Growth Reduction (%) 21 Days After Application, CIRAR: G (0-29)
CIRAR, 35 g ai/ha
  Visual Growth Reduction (%) 21 Days After Application, CIRAR: G (0-29)
CIRAR, 70 g ai/ha
  Visual Growth Reduction (%) 21 Days After Application, CIRAR: G (0-29)
CIRAR, dose for 50 percent growth reduction, probit analysis
  GR50, CIRAR: >140 g ai/ha
CIRAR, dose for 80 percent growth reduction, probit analysis
  GR80, CIRAR: >140 g ai/ha
CIRAR, dose for 90 percent growth reduction, probit analysis
  GR90, CIRAR: >140 g ai/ha
GALAP, 17.5 g ai/ha
  Visual Growth Reduction (%) 21 Days After Application, GALAP: A (95-100)
GALAP, 35 g ai/ha
  Visual Growth Reduction (%) 21 Days After Application, GALAP: A (95-100)
GALAP, 70 g ai/ha
  Visual Growth Reduction (%) 21 Days After Application, GALAP: A (95-100)
GALAP, dose for 50 percent growth reduction, probit analysis
  GR50, GALAP: 1 g ai/ha
GALAP, dose for 80 percent growth reduction, probit analysis
  GR80, GALAP: 4 g ai/ha
GALAP, dose for 90 percent growth reduction, probit analysis
  GR90, GALAP: 7 g ai/ha
HORVS, 17.5 g ai/ha
  Visual Growth Reduction (%) 21 Days After Application, HORVS: G (0-29)
HORVS, 35 g ai/ha
  Visual Growth Reduction (%) 21 Days After Application, HORVS: G (0-29)
HORVS, 70 g ai/ha
  Visual Growth Reduction (%) 21 Days After Application, HORVS: G (0-29)
HORVS, dose for 20 percent growth reduction, probit analysis
  GR20, HORVS: >140 g ai/ha
KCHSC, 17.5 g ai/ha
  Visual Growth Reduction (%) 21 Days After Application, KCHSC: F (30-44)
KCHSC, 35 g ai/ha
  Visual Growth Reduction (%) 21 Days After Application, KCHSC: E (45-59)
KCHSC, 70 g ai/ha
  Visual Growth Reduction (%) 21 Days After Application, KCHSC: D (60-74)
KCHSC, dose for 50 percent growth reduction, probit analysis
  GR50, KCHSC: 35 g ai/ha
KCHSC, dose for 80 percent growth reduction, probit analysis
  GR80, KCHSC: 110 g ai/ha
KCHSC, dose for 90 percent growth reduction, probit analysis
  GR90, KCHSC: >140 g ai/ha
LAMPU, 17.5 g ai/ha
  Visual Growth Reduction (%) 21 Days After Application, LAMPU: B (85-94)
LAMPU, 35 g ai/ha
  Visual Growth Reduction (%) 21 Days After Application, LAMPU: A (95-100)
LAMPU, 70 g ai/ha
  Visual Growth Reduction (%) 21 Days After Application, LAMPU: A (95-100)
LAMPU, dose for 50 percent growth reduction, probit analysis
  GR50, LAMPU: 3 g ai/ha
LAMPU, dose for 80 percent growth reduction, probit analysis
  GR80, LAMPU: 6 g ai/ha
LAMPU, dose for 90 percent growth reduction, probit analysis
  GR90, LAMPU: 9 g ai/ha
17.5 g ai/ha
  Visual Growth Reduction (%) 21 Days After Application, MATCH: G (0-29)
35 g ai/ha
  Visual Growth Reduction (%) 21 Days After Application, MATCH: G (0-29)
70 g ai/ha
  Visual Growth Reduction (%) 21 Days After Application, MATCH: G (0-29)
PAPRH, 17.5 g ai/ha
  Visual Growth Reduction (%) 21 Days After Application, PAPRH: D (60-74)
PAPRH, 35 g ai/ha
  Visual Growth Reduction (%) 21 Days After Application, PAPRH: A (95-100)
PAPRH, 70 g ai/ha
  Visual Growth Reduction (%) 21 Days After Application, PAPRH: A (95-100)
PAPRH, dose for 50 percent growth reduction, probit analysis
  GR50, PAPRH: 11 g ai/ha
PAPRH, dose for 80 percent growth reduction, probit analysis
  GR80, PAPRH: 17 g ai/ha
PAPRH, dose for 90 percent growth reduction, probit analysis
  GR90, PAPRH: 22 g ai/ha
SASKR, 17.5 g ai/ha
  Visual Growth Reduction (%) 21 Days After Application, SASKR: F (30-44)
SASKR, 35 g ai/ha
  Visual Growth Reduction (%) 21 Days After Application, SASKR: E (45-59)
SASKR, 70 g ai/ha
  Visual Growth Reduction (%) 21 Days After Application, SASKR: C (75-84)
SASKR, dose for 50 percent growth reduction, probit analysis
  GR50, SASKR: 29 g ai/ha
SASKR, dose for 80 percent growth reduction, probit analysis
  GR80, SASKR: 90 g ai/ha
SASKR, dose for 90 percent growth reduction, probit analysis
  GR90, SASKR: >140 g ai/ha
SINAR, 17.5 g ai/ha
  Visual Growth Reduction (%) 21 Days After Application, SINAR: C (75-84)
SINAR, 35 g ai/ha
  Visual Growth Reduction (%) 21 Days After Application, SINAR: C (75-84)
SINAR, 70 g ai/ha
  Visual Growth Reduction (%) 21 Days After Application, SINAR: A (95-100)
SINAR, dose for 50 percent growth reduction, probit analysis
  GR50, SINAR: 3 g ai/ha
SINAR, dose for 80 percent growth reduction, probit analysis
  GR80, SINAR: 14 g ai/ha
SINAR, dose for 90 percent growth reduction, probit analysis
  GR90, SINAR: 32 g ai/ha
TRZAS, 17.5 g ai/ha
  Visual Growth Reduction (%) 21 Days After Application, TRZAS: G (0-29)
TRZAS, 35 g ai/ha
  Visual Growth Reduction (%) 21 Days After Application, TRZAS: G (0-29)
TRZAS, 70 g ai/ha
  Visual Growth Reduction (%) 21 Days After Application, TRZAS: G (0-29)
TRZAS, dose for 20 percent growth reduction, probit analysis
  GR20, TRZAS: 66 g ai/ha
VERPE, 17.5 g ai/ha
  Visual Growth Reduction (%) 21 Days After Application, VERPE: B (85-94)
VERPE, 35 g ai/ha
  Visual Growth Reduction (%) 21 Days After Application, VERPE: B (85-94)
VERPE, 70 g ai/ha
  Visual Growth Reduction (%) 21 Days After Application, VERPE: A (95-100)
VERPE, dose for 50 percent growth reduction, probit analysis
  GR50, VERPE: 1 g ai/ha
VERPE, dose for 80 percent growth reduction, probit analysis
  GR80, VERPE: 8 g ai/ha
VERPE, dose for 90 percent growth reduction, probit analysis
  GR90, VERPE: 21 g ai/ha
VIOTR, 17.5 g ai/ha
  Visual Growth Reduction (%) 21 Days After Application, VIOTR: G (0-29)
VIOTR, 35 g ai/ha
  Visual Growth Reduction (%) 21 Days After Application, VIOTR: E (45-59)
VIOTR, 70 g ai/ha
  Visual Growth Reduction (%) 21 Days After Application, VIOTR: D (60-74)
VIOTR, dose for 50 percent growth reduction, probit analysis
  GR50, VIOTR: 44 g ai/ha
VIOTR, dose for 80 percent growth reduction, probit analysis
  GR80, VIOTR: 119 g ai/ha
VIOTR, dose for 90 percent growth reduction, probit analysis
  GR90, VIOTR: >140 g ai/ha
